Laboratory results reported in patent US20180243327A1, “USE OF SECOISOLARICIRESINOL DIGLUCOSIDES (SDGs) AND RELATED COMPOUNDS FOR PROTECTION AGAINST RADIATION DAMAGE” (THE TRUSTEES OF THE UNIVERSITY OF PENNSYLVANIA, priority 2015, published 2018).

Columns and labels:
[1] = Antioxidant and free radical scavenging characteristics
From the text: FIG. 1. Bioactive polyphenolic plant lignans in flaxseed and radiation Damage. Secoisolariciresinol diglucoside (SDG) is the major lignan phenolic in flaxseed. Due to complex SDG extraction, purification and enrichment methods from natural resources, SDG was chemically synthesized. […] (B) The structure of SDG.

[2] = system: human precision-cut lung slices (huPCLS); assay: SA-β-Gal staining of huPCLS post proton radiation; format: cell-based; conditions: 24 hour post proton radiation, 50 Mm LGM2605 given 4 hours prior
Protocol: (§1) FIG. 2: Novel Ex vivo model of human lung: human precision-cut lung slices for radiation exposure. Human Precision-cut slice preparation: Slices (huPCLS) were obtained by inflating the donor human lung with low melting temperature agarose, sectioning, coring, and slicing, as shown above. The 350 μm thick slices were washed three times with culture medium to rid airways of agarose and are viable at 37 °C, up to a week.
FIG. 5: LGM2605 reduces senescent-like phenotype of huPCLS. […] A) SA-β-Gal staining of huPCLS at 24 hour post proton radiation. B) Quantification of the β-gal positive stained cells. Percentage change of the β-gal positive cells of the irradiated huPCLS compared to the nonirradiated huPCLS.
(§2) Methods: Since the testing of our hypothesis in human tissues is critical and cannot be mechanistically pursued in patients, we pursued a novel approach, using an ex vivo model of human normal lung precision-cut sections (huPCLS), used for the first time to our knowledge, in radiation studies. The huPCLS consist of all relevant cell types of the respiratory tract, situated in their microanatomical environment, validated for pharmacological testing. […] Tissues were evaluated 30 min and 24 hours post irradiation for gene expression, protein level changes, and betagalactosidase activity, relevant to inflammation, oxidative stress and senescence.

[3] = system: human precision-cut lung slices (huPCLS); assay: Senescence marker gene levels (qPCR) in huPCLS after 4 Gy proton radiation; format: cell-based; conditions: 50 Mm LGM2605 given 4 hours prior, 30 min and 24 hours post irradiation
Protocol: as §1
(§3) FIG. 6: LGM2605 decreases Proton Radiation-induced Senescence Markers, both at the Gene and Protein Level, in huPCLS. […] Transcript levels of tested genes are normalized to 18S rRNA.*p<0.05.
(§4) Methods: Since the testing of our hypothesis in human tissues is critical and cannot be mechanistically pursued in patients, we pursued a novel approach, using an ex vivo model of human normal lung precision-cut sections (huPCLS), used for the first time to our knowledge, in radiation studies. The huPCLS consist of all relevant cell types of the respiratory tract, situated in their microanatomical environment, validated for pharmacological testing. Human lung sections were exposed to 4 Gy proton radiation in the presence of 0 and 50 Mm LGM2605, given 4 hours prior to exposure. Tissues were evaluated 30 min and 24 hours post irradiation for gene expression, protein level changes, and betagalactosidase activity, relevant to inflammation, oxidative stress and senescence.

[4] = system: human precision-cut lung slices (huPCLS); assay: Proinflammatory cytokine gene levels (qPCR) in huPCLS after 4 Gy proton radiation; format: cell-based; conditions: 50 Mm LGM2605 given 4 hours prior, 30 min and 24 hours post irradiation, normalized to 18S rRNA
Protocol: as §1
FIG. 3: Evaluation of inflammatory markers, in huPCLS, at 30 min and 24 hours post 4 Gy proton radiation with or without SDG pre-treatment for 4 hours. Transcript levels of (A) IL1B, (B) IL6 and (C) TNF-alpha are normalized to 18S rRNA. *p<0.05.
as §4

[5] = system: human precision-cut lung slices (huPCLS); assay: Antioxidant gene levels (qPCR) in huPCLS after 4 Gy proton radiation; format: cell-based; conditions: 50 Mm LGM2605 given 4 hours prior, 30 min and 24 hours post irradiation, normalized to 18S rRNA
Protocol: as §1
FIG. 4: qPCR analysis of (A) HMOX-1 and (B) NQO1 in huPCLS after 30 min and 24 hours post 4 Gy proton radiation with or without SDG pretreatment for 4 hours. Data are represented as average fold change from non-irradiated control±SEM. Transcript levels of tested genes are normalized to 18S rRNA. *p<0.05.
as §2

[6] = system: human precision-cut lung slices (huPCLS); assay: Senescence marker protein levels (Western Blot of whole tissue lysates) in huPCLS treated with proton; format: cell-based; conditions: proton radiation, 50 Mm LGM2605 given 4 hours prior
Protocol: as §1, §3, §4

[7] = Activity of synthetic SDG compared with natural SDG; conditions: synthetic vs natural counterpart
From the text: Using a mouse model of proton radiation exposure, we have identified dose-dependent pathophysiological changes in the lung. […] Thus, we further hypothesize that LGM2605 will be effective against proton-induced pulmonary damage, such as inflammation, oxidative stress and senescence.

COc1cc(C[C@@H](CO[C@@H]2O[C@H](CO)[C@@H](O)[C@H](O)[C@H]2O)[C@H](CO[C@@H]2O[C@H](CO)[C@@H](O)[C@H](O)[C@H]2O)Cc2ccc(O)c(OC)c2)ccc1O [LGM2605, secoisolariciresinol diglucoside]
antioxidant and free radical scavenging characteristics [1]: strong antioxidant and free radical, scavenging characteristics
senescent-like phenotype (SA-β-galactosidase positive staining) [2]: protects huPCLS from a senescent-like phenotype
CDKN2A senescent marker gene level [3]: reduces
TP53 senescent marker gene level [3]: reduces
IL-1β (IL1B) inflammatory marker gene level [4]: reduction
IL-6 (IL6) inflammatory marker gene level [4]: reduction
TNFα inflammatory marker gene level [4]: reduction
antioxidant HO (HMOX-1) gene level [5]: increase
antioxidant NQO1 gene level [5]: increase
p16 senescent marker protein level [6]: reduces
p53 senescent marker protein level [6]: reduces
activity relative to natural SDG [7]: equipotent activity with its natural counterpart
